This note sets out measurements from BindingDB's records for doi:10.1107/S0907444905022638 (University of California San Francisco, 2005).

Common to all, as to experiment: Thymidylate Synthase (TS) Assay
Common to all, as to conditions: pH 7.4; 20 °C

For assay [1], the target named is T1, Thymidylate synthase (Pneumocystis carinii, UniProt P13100).
T1 sequence (P13100 whole entry): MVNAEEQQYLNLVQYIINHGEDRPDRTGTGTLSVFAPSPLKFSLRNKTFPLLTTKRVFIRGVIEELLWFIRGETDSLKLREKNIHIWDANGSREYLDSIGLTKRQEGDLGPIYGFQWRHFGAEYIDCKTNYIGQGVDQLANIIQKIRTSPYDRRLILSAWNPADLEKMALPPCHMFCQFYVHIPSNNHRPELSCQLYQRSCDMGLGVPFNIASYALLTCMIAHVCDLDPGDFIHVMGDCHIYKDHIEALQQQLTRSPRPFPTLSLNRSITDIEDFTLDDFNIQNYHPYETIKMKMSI
How it is done:
(§1) TS was assayed spectrophotometrically in the reaction buffer solution containing (6R, 6S)-5, 10-CH2H4folate. The reaction was initiated by the addition of an amount of enzyme yielding a change in absorbance at 340 nm of 0.016/min in the absence of inhibitor. Ki values were obtained from the linear least-squares fit of the residual activity as a function of inhibitor concentration, using suitable equations for competitive inhibition.

The target of assay [2] is T2, Thymidylate synthase (Lacticaseibacillus casei, UniProt P00469).
T2 sequence (P00469 whole entry): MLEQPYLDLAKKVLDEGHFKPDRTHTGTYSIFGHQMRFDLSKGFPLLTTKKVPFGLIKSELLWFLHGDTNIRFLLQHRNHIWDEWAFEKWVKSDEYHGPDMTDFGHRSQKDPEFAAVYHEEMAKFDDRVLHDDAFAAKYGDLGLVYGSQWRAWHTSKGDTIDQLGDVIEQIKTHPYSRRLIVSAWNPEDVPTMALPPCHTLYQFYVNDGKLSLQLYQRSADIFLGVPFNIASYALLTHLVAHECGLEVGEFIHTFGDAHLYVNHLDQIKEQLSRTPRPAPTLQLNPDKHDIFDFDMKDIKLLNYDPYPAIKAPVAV
How it is done: as §1

The target in assay [3] is Thymidylate synthase (Homo sapiens, UniProt P04818). How it is done: as §1
Chain of Thymidylate synthase (Homo sapiens, UniProt P04818) (P04818 whole entry): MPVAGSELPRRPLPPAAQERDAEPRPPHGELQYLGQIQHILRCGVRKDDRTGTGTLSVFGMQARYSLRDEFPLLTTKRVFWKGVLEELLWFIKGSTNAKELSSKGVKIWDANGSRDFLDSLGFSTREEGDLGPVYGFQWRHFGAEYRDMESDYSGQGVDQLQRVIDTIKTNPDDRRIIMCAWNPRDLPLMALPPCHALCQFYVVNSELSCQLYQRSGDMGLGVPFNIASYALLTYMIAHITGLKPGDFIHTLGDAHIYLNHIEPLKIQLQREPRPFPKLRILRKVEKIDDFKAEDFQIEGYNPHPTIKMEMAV
For assay [4], the target named is Thymidylate synthase (Escherichia coli (strain K12), UniProt P0A884). How it is done:
as §1

In assay [5] the target is T3, Thymidylate synthase (Cryptococcus neoformans var. neoformans serotype D (strain B-3501A), UniProt P0CS13).
T3 sequence (P0CS13 whole entry): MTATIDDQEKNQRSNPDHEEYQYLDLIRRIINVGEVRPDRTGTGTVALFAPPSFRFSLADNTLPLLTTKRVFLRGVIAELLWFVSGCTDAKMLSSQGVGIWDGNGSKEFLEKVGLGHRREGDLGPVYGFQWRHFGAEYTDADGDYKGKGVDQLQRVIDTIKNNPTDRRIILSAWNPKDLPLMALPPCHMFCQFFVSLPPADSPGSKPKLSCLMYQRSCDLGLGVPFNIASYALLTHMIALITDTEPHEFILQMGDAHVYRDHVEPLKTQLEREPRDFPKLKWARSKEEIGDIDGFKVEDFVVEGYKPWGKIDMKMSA
The procedure:
as §1

pKi: −log10 of the molar value. Where only a bound is given, the exact number is not on record here.

Chain of Thymidylate synthase (Escherichia coli (strain K12), UniProt P0A884) (P0A884 whole entry): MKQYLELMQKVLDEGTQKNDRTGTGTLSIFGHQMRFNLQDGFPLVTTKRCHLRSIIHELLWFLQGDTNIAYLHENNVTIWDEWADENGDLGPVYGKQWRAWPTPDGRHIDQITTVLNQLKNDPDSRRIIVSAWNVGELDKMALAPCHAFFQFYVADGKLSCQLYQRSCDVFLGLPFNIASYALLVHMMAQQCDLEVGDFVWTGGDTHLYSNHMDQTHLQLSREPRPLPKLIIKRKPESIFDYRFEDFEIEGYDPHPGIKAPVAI

As a reminder, the pKi is the Ki on a negative log10 scale, so that one unit is a factor of ten. A lower pKi goes with a high Ki. Regarding `O=C1OC(c2ccc(O)c(Br)c2)(c2ccc(O)c(Br)c2)c2cccc3c(Cl)ccc1c23` [4,4-bis(3-bromo-4-hydroxyphenyl)-10-chloro-3-oxatricyclo[7.3.1.0^{5,13}]trideca-1(12),5(13),6,8,10-pentaen-2-one], the pKi at Thymidylate synthase [1] was 4.55; at Thymidylate synthase [2] it was 6.10; on Thymidylate synthase [3], less than 3.61; on Thymidylate synthase [4], 5.39; on Thymidylate synthase [5] it was 5.39.
